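1) Cells in 96-well plates. 2) Compound, 48 h, 5 concentrations. 3) Linear interpolation between surrounding doses. 4) Unreached endpoint = highest concentration. GI50 is the concentration that inhibits growth by half. TGI marks complete inhibition of growth.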
How the values were obtained:
Assay in all cases: inhibition of tumour cell growth, NCI panel, 48 h
DMS 273 small cell lung = tested on: DMS 273 small cell lung
HOP-18 NSCLC = tested on: HOP-18 NSCLC
KM20L2 colon = tested on: KM20L2 colon
M19-MEL melanoma = tested on: M19-MEL melanoma
SNB-78 CNS = tested on: SNB-78 CNS
MDA-N = tested on: MDA-N
LXFL 529 NSCLC = tested on: LXFL 529 NSCLC
RXF-631 renal = tested on: RXF-631 renal
XF 498 CNS = tested on: XF 498 CNS

| SMILES | TGI (DMS 273 small cell lung) | TGI (HOP-18 NSCLC) | TGI (KM20L2 colon) | TGI (M19-MEL melanoma) | TGI (SNB-78 CNS) | TGI (LXFL 529 NSCLC) | TGI (XF 498 CNS) | further results |
| --- | --- | --- | --- | --- | --- | --- | --- | --- |
| O=[N+]([O-])c1cc(/C=N/NS(=O)(=O)c2ccc(F)cc2)c(O)c([N+](=O)[O-])c1 | 98.9 µM | > 100 µM | 59.3 µM | > 100 µM | > 100 µM |  |  |  |
| Nc1cccc2nsnc12 |  |  |  |  |  |  |  | TGI (MDA-N): > 100 µM |
| Cc1cccc(N=C2NC(=O)C(CC(=O)Nc3ccc(Cl)cc3C)S2)c1 (configuration not stated) | > 100 µM | > 100 µM | > 100 µM | > 100 µM |  | > 100 µM |  | TGI (RXF-631 renal): > 100 µM |
| C[C@]12CCCC(=O)C1C[C@H](C(=O)O)CC2 (some centres not stated) | > 100 µM | > 100 µM | > 100 µM | > 100 µM |  | > 100 µM | > 100 µM | TGI (RXF-631 renal): > 100 µM |
| O=C1c2cccc3cc([N+](=O)[O-])cc(c23)C(=O)N1O |  |  |  |  |  |  |  | TGI (MDA-N): > 100 µM |
| CCOC(=O)C1(Cc2ccc3ccccc3c2)CCCCCN1 (configuration not stated) | 38.4 µM | > 100 µM | 57 µM | 93.8 µM | > 100 µM | > 100 µM | 41.2 µM |  |
| Nn1c(N=Nc2c(O)[nH]c3ccccc23)n[nH]c1=S |  | > 100 µM | > 100 µM | > 100 µM | > 100 µM | > 100 µM | 94 µM |  |
| CC12OC3CC(O1)C1(C=O)C4CCC5(C)C(c6ccc(=O)oc6)CCC5(O)C4CCC1(C3)O2 (configuration not stated) | 0.235 µM | 0.748 µM | 1.31 µM | 1.16 µM | 3.66 µM | 0.432 µM |  |  |
| CCC[CH2][Sn]1([CH2]CCC)[O]C(=O)c2cc(C)ccc2[O]1 | 1.73 µM |  | 2.64 µM |  | 1.01 µM | 0.336 µM |  | GI50 (DMS 273 small cell lung): 0.519 µM; GI50 (KM20L2 colon): 1.35 µM; GI50 (LXFL 529 NSCLC): 0.129 µM; GI50 (SNB-78 CNS): 0.368 µM |
| N#CC12Cc3ccc4c(c3-c3cccc(c31)CCN2C(=O)c1ccccc1)OCO4 (configuration not stated) | > 100 µM | > 100 µM | > 100 µM | > 100 µM | > 100 µM | > 100 µM | > 100 µM |  |
| CS(=O)(=O)c1nc(Cl)c(Cl)c(C#N)c1Cl | 24.6 µM | 11.5 µM | 20.8 µM |  | > 36 µM | 2.99 µM | 7.93 µM | TGI (MDA-N): 3.5 µM; TGI (RXF-631 renal): 38.9 µM |
| CC[C@@]1(OC(=O)CN)C(=O)OCc2c1cc1n(c2=O)Cc2cc3c(N)c4c(cc3nc2-1)OCO4 |  |  |  |  |  |  |  | GI50 (MDA-N): 0.0127 µM; TGI (MDA-N): > 100 µM |
| CC12C(=O)N(CCN)C(=O)C1C1c3ccccc3C2c2ccccc21 (configuration not stated) | > 100 µM | > 100 µM | > 100 µM | > 100 µM | > 100 µM | > 100 µM | > 100 µM |  |
| Cc1cc(C)c2[s+]snc2c1 | > 100 µM | > 100 µM | > 100 µM | > 100 µM | > 100 µM | > 100 µM | > 100 µM | TGI (RXF-631 renal): > 100 µM |
| CCOc1ccc(NC(=O)CCC(=O)NN)cc1 | > 100 µM | > 100 µM | > 100 µM |  | > 100 µM | > 100 µM | 95 µM |  |
| NNC(=S)N/N=C/C(Cl)=C(\Cl)C(=O)O | > 100 µM |  | > 100 µM | > 100 µM | > 100 µM | > 100 µM | > 100 µM |  |
| CC[O-].CC[O-].O=C([CH-]C(=O)c1ccccc1)c1ccccc1.O=C([CH-]C(=O)c1ccccc1)c1ccccc1.[Ti+4] |  |  | > 100 µM |  |  |  |  | GI50 (KM20L2 colon): > 100 µM |
| N#Cc1ccccc1Nc1ccccc1S | > 100 µM | > 100 µM |  | > 100 µM | > 100 µM | 59.3 µM | 40 µM | TGI (RXF-631 renal): > 100 µM |

| SMILES | TGI (DMS 273 small cell lung) | TGI (HOP-18 NSCLC) | TGI (KM20L2 colon) | TGI (M19-MEL melanoma) | TGI (SNB-78 CNS) | TGI (LXFL 529 NSCLC) | TGI (XF 498 CNS) | further results |
| --- | --- | --- | --- | --- | --- | --- | --- | --- |
| C[N+]1=c2c3cccc4cccc(c(=O)n2CCC1)c43 | 56.7 µM | > 100 µM | 47.2 µM | 35.8 µM | 94.6 µM | 40.7 µM | 38 µM |  |
| O=C1c2ccccc2C(=O)c2sc(Nc3ccc(Cl)c(Cl)c3)nc21 | 22.1 µM | 14.3 µM | 41.7 µM | 2.44 µM | 6.68 µM | 3.53 µM | 6.04 µM | TGI (RXF-631 renal): 31.4 µM |
| O=C1c2ccccc2C(=O)c2c(NC(=O)c3ccc4c5c(ncnc35)-c3ccccc3C4=O)cccc21 |  |  |  |  |  |  |  | TGI (MDA-N): > 100 µM |
| NC(=O)CCC(NC(=O)C(F)(F)F)C(=O)O (configuration not stated) | > 100 µM | > 100 µM | > 100 µM | > 100 µM | > 100 µM | > 100 µM | > 100 µM |  |
| O=C1CCC(=O)C(C(=O)CCC(=O)Nc2cccc(Cl)c2)C1 (configuration not stated) |  | > 100 µM | > 100 µM | > 100 µM |  | > 100 µM | > 100 µM |  |
| C=C=[CH][Sn]([c]1ccccc1)([c]1ccccc1)[c]1ccccc1 |  |  | 4 µM | 3.06 µM | 9.29 µM | 3.02 µM |  | GI50 (KM20L2 colon): 2.02 µM; GI50 (LXFL 529 NSCLC): 1.58 µM; GI50 (M19-MEL melanoma): 1.62 µM; GI50 (SNB-78 CNS): 3.1 µM |
| CC(C)NC(=O)O/N=C1\CCC2[C@@H]3CC=C4C[C@@H](OC(=O)NC(C)C)CC[C@]4(C)C3CC[C@]12C (some centres not stated) | 2.82 µM | 4.67 µM | 9.59 µM | 2.81 µM | 6.77 µM | 2.13 µM |  | TGI (RXF-631 renal): 3.57 µM |
| CCOC(=O)CNC(=O)C(CSC(=O)N(C)O)NC(=O)CCC(N)C(=O)O (configuration not stated) |  | > 2000 µM | > 2000 µM | > 2000 µM |  | > 2000 µM |  | GI50 (DMS 273 small cell lung): > 2000 µM; GI50 (HOP-18 NSCLC): > 2000 µM; GI50 (KM20L2 colon): > 2000 µM; GI50 (LXFL 529 NSCLC): > 2000 µM; GI50 (M19-MEL melanoma): > 2000 µM |
| CC1=NN(c2ccccc2)C(=O)C1N=Nc1ccc(Br)c(C)c1 (configuration not stated) | > 100 µM | > 100 µM | > 100 µM | > 100 µM | > 100 µM | > 100 µM | > 100 µM | TGI (RXF-631 renal): > 100 µM |
| OC1C2C=CCC1CCC2 (configuration not stated) | > 100 µM | > 100 µM | > 100 µM | > 100 µM | > 100 µM |  | > 100 µM | TGI (RXF-631 renal): > 100 µM |
| O=P1(O)c2ccccc2CS(=O)(=O)Cc2ccccc21 |  |  |  |  |  |  |  | TGI (MDA-N): > 100 µM |
| CC(C)[O-].CC(C)[O-].[O-]c1cccc2cccnc12.[O-]c1cccc2cccnc12.[Ti+4] |  | > 100 µM | > 100 µM |  |  |  |  |  |
| OC(c1ccccc1)c1c(-c2ccccc2)oc(-c2ccccc2)c1C(O)c1ccccc1 (configuration not stated) |  |  |  |  |  |  |  | TGI (MDA-N): 24.6 µM |
| COc1cc2c3c(c1O)C1(C=CC(=O)C=C1)CC3N(C)CC2 (configuration not stated) |  |  |  |  |  |  |  | TGI (MDA-N): 24.2 µM |
| CCOC(=O)N1CCC(=O)C[C@@H]1C/C=C/P1(=O)O[C@H](c2ccccc2)C(C)N1C(C)C (some centres not stated) | > 100 µM |  | > 100 µM | > 100 µM | > 100 µM | > 100 µM |  |  |
| C=C1CC(C/C=C(\C)CC2CC(=C)C(=O)O2)OC1=O (configuration not stated) | > 100 µM | > 100 µM | > 100 µM | > 100 µM | > 100 µM | > 100 µM | > 100 µM | TGI (RXF-631 renal): > 100 µM |
| c1cnc2c(c1)Nc1cnncc1S2 |  |  |  |  |  |  |  | TGI (MDA-N): > 100 µM |
| NC(=O)NC(=O)C1CCCCC1C(=O)O (configuration not stated) |  |  |  |  |  |  |  | TGI (MDA-N): > 100 µM |

From PubChem BioAssay (NCI)
